These results are taken from patent US20250280843A1, “METHOD FOR INHIBITING POTATOES FROM GREENING AND USE THEREOF” (priority 2024, published 2025).

Read-outs that look alike come from different tables or passages of the source.

For series [1], the system named is potato tubers. Kind of series: Determination of greening index a* of potato tuber skin after fumigation. It counts as in vivo, potato ("V7"). Conditions: for greening index a*: fumigation 10 mg 1-MCP + NaOH 16 h; for Value of greening index a*: with NaOH. The source says: The method for inhibiting potatoes from greening was: treating potato tubers with 1-MCP, and specifically, fumigating potato tubers with 1-MCP and NaOH.
(§1) “V7” potatoes were used as experimental materials. They were collected from Dongyu Vegetable Market in Ningbo City, Zhejiang Province. They were freshly picked and transported to the laboratory at room temperature. They were cleaned, and tubers of uniform sizes and free of diseases and insect pests and free of mechanical damages were selected as experimental samples. The samples were divided into two groups, immersed in distilled water for 10 min and then naturally air-dried after the immersion treatment was ended.
(§2) One group served as a control group (CK) without any subsequent treatment, and contained 50 potatoes. For another group, a carton was provided, in which 50 potatoes were placed. The carton was placed in a controlled atmosphere storage box with a volume of 1,000 L at a temperature controlled at 25° C. and the humidity maintained at 60%. The gas composition in the controlled atmosphere storage box was maintained the same as that of the atmosphere. A space was reserved in the controlled atmosphere storage box. 10 mg of 1-MCP dry powder was weighed into a glass weighing bottle. The weighing bottle containing 1-mcp was placed in the controlled atmosphere storage box, and added with 2 ml of a 1M NaOH solution to release 1-mcp gas from the weighing bottle. The weight of the gas was 10 mg. The potatoes were placed in the gas environment, fumigated for 16 h, taken out and then air-dried for 1 h. The meaning of “fumigation” here was to put the potatoes in a gas environment of 10 mg 1-mcp in a 1,000 L controlled atmosphere storage box, which was equivalent to a concentration of 0.01 milligrams of the 1-mcp gas per liter of gas.
Subsequently, the potatoes of the control group (2 groups) and the treatment group (2 groups) were bagged (two groups). The two groups were stored in a constant temperature and humidity chamber at 25±1° C. and relative humidity of 60% for 12 d. One of the groups was an illumination group with an illumination intensity of 10,000 LUX, and the other one was a group with protection from light having an illumination intensity of 0 LUX (in the dark). The tuber skin of the potatoes was taken every 3 d and photographed. The skin was then frozen in liquid nitrogen, and stored at −80° C. for subsequent analysis.
Potato tubers treated for corresponding days were picked out. 6 potatoes were randomly selected from each group. the skin of potato tuber was peeled off, and immediately measured for the color difference with a colorimeter (Shenzhen ThreeNH Technology Co., Ltd., model: NR60CP+), and the a* value was determined and recorded with a […] to indicate the color change of the potato skin. a* was an important parameter for measuring color and lustre. The positive or negative value indicated reddish (positive indicated reddish) or greenish (negative indicated greenish), and the magnitude of the absolute value indicated the degree of reddish or greenish. The colorimeter was calibrated with a standard white plate before determination.
Three groups of experiments were set up. One group was as described in Example 1, in which potato tubers were fumigated with 1-MCP and NaOH, serving as the control group in this experiment. The difference between an experimental group 1 and the control group was that no NaOH solution was used, but an equal volume of water was used. The difference between an experimental group 2 and the control group was that no NaOH solution was used, but an equal volume of anhydrous ethanol was used.
This example employed the method provided in Example 1, and employed 1-MCP and NaOH to fumigate potato tubers, where the dosages of 1-MCP were 1, 5, 10, 15, and 20 mg, respectively. The greening index a* value was determined by the same method as in Example 1.

Series [2] deals with potato tubers. Briefly: Determination of chlorophyll content. The series is classed as in vivo, potato ("V7"). The following applies: illumination group, during storage 12 d; vs control. The procedure: as §1
One group served as a control group (CK) without any subsequent treatment, and contained 50 potatoes. For another group, a carton was provided, in which 50 potatoes were placed. The carton was placed in a controlled atmosphere storage box with a volume of 1,000 L at a temperature controlled at 25° C. and the humidity maintained at 60%. The gas composition in the controlled atmosphere storage box was maintained the same as that of the atmosphere. […]
0.2 g of a potato frozen sample (the sample of the illumination group) was taken, grounded into a homogenate with 1.5 mL of 95% (v/v) ethanol in an ice bath, and then centrifuged at a rotational speed of 10.000 r/min for 10 min. The precipitate was discarded, the supernatant was taken, and 95% ethanol was used as a blank group, to determine the absorbance values at 649 nm and 665 nm, respectively. […]

In series [3] the test system is potato tubers. Kind of series: Determination of ethylene release amount. Conditions: illumination group, entire storage period 12 d; vs control. It counts as in vivo, potato ("V7"). The procedure: as §1
One group served as a control group (CK) without any subsequent treatment, and contained 50 potatoes. For another group, a carton was provided, in which 50 potatoes were placed. The carton was placed in a controlled atmosphere storage box with a volume of 1,000 L at a temperature controlled at 25° C. and the humidity maintained at 60%. The gas composition in the controlled atmosphere storage box was maintained the same as that of the atmosphere. A space was reserved in the controlled atmosphere storage box. 10 mg of 1-MCP dry powder was weighed into a glass weighing bottle. […]
4 potato tubers were randomly selected and placed in a sealed container (illumination group). They were placed at respective storage temperatures for 3 h, and then 5 mL of gas was extracted and determined for ethylene content using a Shimadzu type 2014C gas chromatograph (Shimadzu, Japan). […]

Series [4] relates to potato tubers. Briefly: Determination of solanine content (LC-MS). The following applies: vs control. The series is classed as in vivo, potato ("V7"). The procedure:
as §1
One group served as a control group (CK) without any subsequent treatment, and contained 50 potatoes. For another group, a carton was provided, in which 50 potatoes were placed. The carton was placed in a controlled atmosphere storage box with a volume of 1,000 L at a temperature controlled at 25° C. and the humidity maintained at 60%. The gas composition in the controlled atmosphere storage box was maintained the same as that of the atmosphere. A space was reserved in the controlled atmosphere storage box. 10 mg of 1-MCP dry powder was weighed into a glass weighing bottle. The weighing bottle containing 1-mcp was placed in the controlled atmosphere storage box, and added with 2 ml of a 1M NaOH solution to release 1-mcp gas from the weighing bottle. The weight of the gas was 10 mg. The potatoes were placed in the gas environment, fumigated for 16 h, taken out and then air-dried for 1 h. The meaning of “fumigation” here was to put the potatoes in a gas environment of 10 mg 1-mcp in a 1,000 L controlled atmosphere storage box, which was equivalent to a concentration of 0.01 milligrams of the 1-mcp gas per liter of gas. […]
Solanine was mainly composed of solanine and chaconine, with solanidine as aglycone. Therefore, α-solanine and α-chaconine (Sigma-Aldrich, USA) were used as chemical standards for quantification of SGA content. • 1) Liquid chromatography conditions: AgilentEclipsePlusC18 chromatographic column (100 mm×2.1 mm, 1.8 μm); the mobile phase A was 1 mmol/L of an acidified ammonium formate solution, and the mobile phase B was acetonitrile. […]

Series [5] deals with potato tubers. Briefly: Long-term preservation effect under natural illumination. It counts as in vivo, potato ("V7"). The following applies: for color difference value: natural day/night, 25±1° C. The procedure: as §2
In order to simulate natural illumination, the aforementioned control and treated potatoes were placed in an incubator (fully transparent), and placed under conditions of 25±1° C. and relative humidity of 60% in an outdoor environment. Based on the environment with natural alternation of day and night, the color difference was calculated through instruments. The change in color difference values was measured every 5 days during storage for 2, 3, and 6 months. […] In the 2nd month of storage, the color difference value of the control group was −14, while the test value of the treatment group was −2.2.

Series [6] concerns solanine synthesis-related genes. Kind of series: Gene expression by real-time PCR: solanine synthesis genes. The following applies: during the greening period; vs control. Also on record: species or system potato. The procedure: Genes related to inhibition of solanine synthesis included StHMGR, StPSS1, StSQE1, StCAS1, StSSR2, StSSR1, StPGA2, StPGA1, StDOX, StGAME6, StPGA3, StGAME12, StSGT1, StSGT2, and StSGT3.
(§3) Total RNA was extracted from frozen potato skins and transformed into cDNA. The expression levels of the aforementioned genes were determined by a Bio-Rad CFX 96 Real-Time PCR System (BIO-RAD, Hercules, CA, USA) and a SYBR Green I Master Mix (Vazyme, Nanjing, Jiangsu, China). Thermocycling conditions included an initial denaturation step at 95° C. for 30 s, followed by 39 cycles of 95° C. for 15 s, then 55° C. for 30 s, and 72° C. for 20 s. Three biological replicates were used, and each replicate was measured for three times. StEF-1a was used as a reference gene for potatoes. Gene expression was calculated by using a 2-ΔCt method.

For series [7], the system named is chlorophyll synthesis-related genes. Briefly: Gene expression by real-time PCR: chlorophyll synthesis genes. Also on record: species or system potato. The following applies: during the greening period; vs control. The procedure: Chlorophyll synthesis-related genes included StHEMA, StGSA, StPBGD, StCPO, StPPO, StCHLD, StCHLI, StCHLH, STCHLHM, StCRD1, StPOR1, StPOR2, StCHLG, and StCHLP.
as §3
Background: Real-time PCR tracks product formation cycle by cycle.

Series [8] concerns chlorophyll degradation-related genes. Briefly: Gene expression by real-time PCR: chlorophyll degradation genes. Conditions: during the greening period; vs control. On the set-up: species or system potato. The procedure:
Chlorophyll degradation-related genes included StSGR, StNYC1, StTIC, and StPAO.
as §3

The test system of another series is StPOD42. Briefly: Gene expression by real-time PCR: germination-promoting gene. Also on record: species or system potato. Conditions: during storage; vs control. The procedure:
Germination-promoting genes included StPOD42 (XM_006363284.2).
as §3

The test system of another series is potatoes. The series is classed as in vivo, potato. Conditions: under illumination; specific experimental data omitted. The source says: Ethylene, as a plant hormone that promotes maturity and aging, can be produced by some plants themselves and exists in a certain amount in the storage environment and even in the air. Ethylene binds with a related receptor inside a cell to activate a series of physiological and biochemical reactions related to maturity, thereby accelerating aging and death. 1-MCP can also bind well with an ethylene receptor, but such binding will not cause a biochemical reaction of maturity. Therefore, before the production of endogenous ethylene in a plant or the action of exogenous ethylene, if 1-MCP is applied, it will bind with the ethylene receptor first, thereby preventing the binding of ethylene with the receptor thereof, which greatly prolongs the ripening and aging process of fruits and vegetables and extends the length for preservation. There are many reagents that bind with the ethylene receptor to control the production of ethylene, e.g. aminooxyacetic acid (AOA), salicylic acid (SA), 2,5-norbornadiene (2,5-NBD), silver thiosulfate (STS), and aminooxyvinylglycine (AVG). These reagents are all ethylene inhibitors.

The conditions of series [9]: cited from earlier work.

1-methylcyclopropene [1-MCP]: in the series with potato tubers [1] (Example 3, 1-MCP released with NaOH solution vs water vs anhydrous ethanol), the “greening index a*: fumigation with NaOH compared with equal volume of water or ethanol” value was “significantly improve the effect of 1-MCP in inhibiting greening”. Moreover, the “greening index a*” value was “basically no greening” with potato tubers [1] (dark (0 LUX), 6th day of storage) and “still remained at a relatively high level” in the series with potato tubers [1] (illumination 10,000 LUX, 25±1° C., storage 12 d, vs control). The “Value of greening index a*” value in the series with potato tubers [1] (dosage of 1-MCP 1 mg, storage 12 d) is −3.2; with potato tubers [1] (dosage of 1-MCP 5 mg, storage 12 d) it was −2.1; in the series on potato tubers [1] (dosage of 1-MCP 10 mg, storage 12 d) it was −1.2; in the series on potato tubers [1] (dosage of 1-MCP 15 mg, storage 12 d) it was −1.8; in the series on potato tubers [1] (dosage of 1-MCP 20 mg, storage 12 d), −2.6. Also, the chlorophyll content entry with potato tubers [2] is “increased slowly compared with the control group”. For the same compound, in the series with potato tubers [3], the ethylene release amount result was “always lower than that of the control group”. In addition, the solanine content entry is on record as “increased very slowly” in the series on potato tubers [4] (during storage, dark or light) and “maintained within a safe range” in the series with potato tubers [5] (6 months of storage). For the same compound, in the series on potato tubers [4] (starting from the 3rd day), the α-chaconine content entry is given as “significantly different from those in the control group”. In the series on potato tubers [4] (starting from the 3rd day), the α-solanine content entry is “significantly different from those in the control group”. For the same compound, the “appearance (green spots)” value in the series on potato tubers [5] (2nd month of storage) was “no obvious changes”. In addition, the color difference value with potato tubers [5] (2nd month of storage) is −2.2; in the series with potato tubers [5] (3 months of storage), −3.4; in the series with potato tubers [5] (6 months of storage), −6.7. Moreover, the germination in appearance result in the series on potato tubers [5] (3 months of storage) was “a small amount of germination”. Besides, the occurrence of greening entry in the series on potato tubers [5] (3 months of storage) and in the series on potato tubers [5] (6 months of storage) was “no occurrence of greening” throughout. For the same compound, the germination entry in the series with potato tubers [5] (6 months of storage) is on record as “a small amount of germination”. In addition, in [6], the “expression amount of solanine synthesis-related genes” value was “significantly lower than those in the control group”. For the same compound, the “expression amount of chlorophyll synthesis-related genes” value in series [7] is reported as “significantly lower than those in the control group”. The “expression amount of chlorophyll degradation genes” value in series [8] is on record as “significantly higher than those in the control group”. Further, the “expression of the germination-promoting gene StPOD42” value in the series on StPOD42 was “did not affect the expression”. The “effect on greening of potatoes” value in the series on potatoes is recorded as “significantly inhibit potatoes from greening”. Also, the solubility in solvent in series [9] (3-dichlorotoluene) is 2000 µg/mL; in series [9] (acetone) it was 2400 µg/mL; in series [9] (ethyl acetate) it was 12500 µg/mL; in [9] (heptane), 2500 µg/mL; in series [9] (methanol), 11250 µg/mL; in [9] (xylene) it was 2300 µg/mL. The water solubility in [9] (20° C.) is 137 µg/mL.
For `C1=CC2C=CC1C2` [2,5-norbornadiene], the “effect on greening of potatoes” value with potatoes is reported as “accelerate the greening progress”.
The same measure, in the same setting: then `NOCC(=O)O` [aminooxyacetic acid], with “will not inhibit the potatoes from greening”; and `O=C(O)c1ccccc1O` [salicylic acid], with “accelerate the greening progress”.
Consider silver thiosulfate, for which, in the series on potatoes, the “effect on greening of potatoes” value is recorded as “will not inhibit the potatoes from greening”.
